Measured values taken from patent US20250018068A1, “4H-IMIDAZO[1,5-B]PYRAZOLE DERIVATIVES FOR DIAGNOSIS” (AC IMMUNE SA, priority 2021, published 2025).
Entries after “also recorded” stand apart in the source; their conditions may differ. Counter-ions that a name gives are not always drawn. Values belong to the molecule of their own block, whether it stands above or below them.

Columns and labels:
[1] = target: T1, Abeta pathological aggregates (Homo sapiens, UniProt P05067); assay: Radiobinding competition assay on AD brain homogenates, displacement of [3H]-Abeta-Ref; type: binding
T1 construct: Abeta pathological aggregates present in the human AD brain homogenates; from tissue; host or cells: human AD donor brain, Triton/sucrose-insoluble fraction
Procedure: The procedure was adapted from the protocol described in Bagchi et al., 2013. Frozen tissue blocks from AD donors were thawed on ice and homogenized in high salt buffer (50 mM Tris-HCl pH 7.5, 0.75M NaCl, 5 mM EDTA) supplemented with protease inhibitors (Complete; Roche 11697498001) at 4° C. using a glass Dounce homogenizer. The homogenate was centrifuged at 100,000×g (38,000 RPM) in an ultracentrifuge (Beckman, XL100K) for one hour at 4° C. using a pre-cooled 70.1 rotor (Beckman, 342184). Pellets were resuspended in high salt buffer supplemented with 1% Triton X-100 and homogenized at 4° C. using a glass Dounce homogenizer. […]
A fixed concentration of AD insoluble fraction was incubated with a tritiated reference Abeta ligand ([^3H]-Abeta-Ref) at 10 nM and increasing concentrations of non-radiolabelled example compound 1 in the range of […] to 2 μM for two hours at RT. […] The filters were analyzed on a Microbeta2 scintillation counter (PerkinElmer). Non-specific signal was determined with an excess of non-radiolabelled reference ligand (2 μM) and specific binding was calculated by subtracting the non-specific signal from the total signal. Competition was calculated as percent, where 0% was defined as the specific binding in the presence of vehicle and 100% as the values obtained in the presence of excess of the non-radiolabelled reference ligand. […]

[2] = target: T2, PD brain-derived alpha-synuclein aggregates (Homo sapiens, UniProt P37840); assay: Micro-radiobinding competition assay for the determination of binding affinity; conditions: human PD brain-derived alpha-synuclein aggregates; for inhibition at 0.1 µM: 100 nM non-radiolabelled compound, read-out: Micro-radiobinding competition assay Competition at 100 nM (%); for inhibition at 0.1 µM / inhibition at 1 µM: competition over tritiated [3H]-Example-1 ligand; for inhibition at 1 µM: 1 μM non-radiolabelled compound, read-out: Micro-radiobinding competition assay Competition at 1 μM (%)
T2 construct: from tissue; host or cells: human PD donor brain, sarkosyl-insoluble pellet
Procedure: The procedure was adapted from the protocol described in Spillantini et al., 1998. Frozen tissue blocks from PD donors were thawed on ice and homogenized using a glass dounce homogenizer. The homogenate was then centrifuged at 11,000×g (12,700 RPM) in an ultracentrifuge (Beckman, XL100K) for 20 minutes at 4° C. using a pre-cooled 70.1 rotor (Beckman, 342184). Pellets were resuspended in extraction buffer [10 mM Tris-HCl pH 7.4, 10% sucrose, […], 1% protease inhibitor (Calbiochem 539131), 1 mM EGTA, 1% phosphatase inhibitor (Sigma P5726 and P0044)] and centrifuged at 15,000×g (14,800 RPM, a 70.1 Ti rotor) for 20 minutes at 4° C. Pellets were discarded and sarkosyl (20% stock solution, Sigma L7414) was added to the supernatants to a final concentration of 1% at room temperature for one hour. This solution was then centrifuged at 100,000×g (38,000 RPM, 70.1 Ti rotor) for one hour at 4° C. Pellets containing enriched alpha-synuclein aggregates were resuspended in PBS and stored at −80° C. until use.
PD brain-derived alpha-synuclein aggregates were spotted onto microarray slides. The slides were incubated with [^3H]-alpha-synuclein reference at 6 nM or 20 nM and the example compounds (non-radiolabelled) at 1 μM and 100 nM. In some cases, the non-radiolabelled example compounds were further assessed for a range of different concentrations, varying from 0.05 nM to 2 μM. After incubation, slides were washed and scanned by a real-time autoradiography system (BeaQuant, ai4R). Quantification of the signal was performed by using the Beamage image analysis software (ai4R). Non-specific signal was determined with an excess of non-radiolabelled Example-1 (2 μM) and specific binding was calculated by subtracting the non-specific signal from the total signal. Competition was calculated as percent, where 0% was defined as the specific binding in the presence of vehicle and 100% as the values obtained in the presence of excess of the non-radiolabelled Example-1. Ki values were calculated in GraphPad Prism7 by applying a nonlinear regression curve fit using a one site, specific binding model. All measurements were performed with at least two technical replicates. For compounds tested in more than one experiment, the mean of the replicates or Ki values in independent experiments is reported.
Results: Example compounds were assessed for their potency to compete with the binding of [^3H]-reference alpha-synuclein ligand to PD patient brain-derived alpha-synuclein aggregates. Results of the micro-radiobinding competition assay for the example compounds tested are shown in Table 3 as: % competition at 1 μM and 100 nM.
Table 3: Assessment of binding affinity by micro-radiobinding competition assay on human PD brain-derived alpha-synuclein aggregates. Percent (%) competition over the tritiated [^3H]-Example-1 ligand in the presence of 1 μM and 100 nM of example compounds 1-9. Ki values are also shown for selected example compounds. *, mean of Ki values in two independent experiments using PD brain-derived homogenates from two different donors.

[3] = tested on: pathological alpha-synuclein aggregates; assay: Autoradiography on frozen human brain sections (specific binding, Kd); conditions: 10 nM
Procedure: (§1) Frozen human brain sections from one familial PD case (alpha-synuclein [SNCA] gene G51D missense mutation), labelled as SNCA (G51D), one PDD case, one MSA case, one LBV case and two non-demented control (NDC) cases were first briefly fixed for 15 minutes at 4° C. with 4% paraformaldehyde (Sigma, 252549) and washed three times for five minutes with PBS (Dulbecco's phosphate buffered saline, Sigma) at RT. All slides were then equilibrated for 20 minutes in 50 mM Tris-HCl pH 7.4 buffer prior to use in the experiment. Each brain section was incubated with a fixed concentration (10 nM) of tritiated example compound 1 ([^3H]-Example-1) or increasing concentrations of [^3H]-Example-1 in the range of 2.5 nM to 80 nM of tritiated compound in Tris-HCl buffer for two hours at RT (Total binding, ‘TB’). To determine non-specific (NSB) binding ([^3H]-Example-1 was mixed with 5 μM of non-radiolabelled compound (Example 1, self-block, ‘NSB’). The slides were washed and then exposed and scanned in a real-time autoradiography system (BeaQuant instrument, ai4R). Specific binding was determined by subtracting the non-specific signal from the total signal. Kd values were calculated in GraphPad Prism7 by applying a nonlinear regression curve fit using a one site specific binding model.

[4] = target: T3, pathological alpha-synuclein aggregates (Homo sapiens, UniProt P37840, G51D); assay: as above
T3 construct: Frozen human brain sections from one familial PD case; from tissue; host or cells: frozen human brain sections: SNCA (G51D) familial PD, PDD, MSA, LBV, non-demented controls
Procedure: as §1

[5] = target: T2, PD brain-derived alpha-synuclein aggregates; assay: Saturation binding on PD brain-derived alpha-synuclein aggregates by micro-radiobinding; conditions: PD brain tissue homogenates
Procedure: The procedure was adapted from the protocol described in Spillantini et al., 1998. Frozen tissue blocks from PD donors were thawed on ice and homogenized using a glass dounce homogenizer. The homogenate was then centrifuged at 11,000×g (12,700 RPM) in an ultracentrifuge (Beckman, XL100K) for 20 minutes at 4° C. using a pre-cooled 70.1 rotor (Beckman, 342184). Pellets were resuspended in extraction buffer [10 mM Tris-HCl pH 7.4, 10% sucrose, […], 1% protease inhibitor (Calbiochem 539131), 1 mM EGTA, 1% phosphatase inhibitor (Sigma P5726 and P0044)] and centrifuged at 15,000×g (14,800 RPM, a 70.1 Ti rotor) for 20 minutes at 4° C. […]
PD brain-derived alpha-synuclein aggregates were spotted onto microarray slides. […] Following exposure, phosphor storage screens were scanned with a laser imaging system (Typhoon FLA 7000) to readout the signal from the radiobinding experiments described above. Quantification of the signal was performed using the ImageJ software package. Non-specific signal was determined with an excess of non-radiolabelled reference ligand (Example-1 at 2 μM) and specific binding was calculated by subtracting the non-specific signal from the total signal. Kd values were calculated in GraphPad Prism7 by applying a nonlinear regression curve fit using a one site specific binding model.

Tau aggregates = assay: High resolution micro-autoradiography on AD tissue containing pathological Tau aggregates; type: binding, human
Procedure: (§2) The protocol was adapted from Marquie et al., 2015. Sections were incubated with tritiated example compound 1 ([^3H]-Example-1) at 10 nM or 20 nM or a reference Tau ligand ([^3H]-Tau-Ref at 20 nM for one hour at room temperature (RT). Sections were then washed as follows: One time in ice-cold 50 mM Tris-HCl pH 7.4 buffer for one minute, two times in 70% ice-cold ethanol for one minute, one time in ice-cold 50 mM Tris-HCl pH 7.4 buffer for one minute and finally rinsed briefly in ice-cold distilled water. Sections were subsequently dried and then exposed to Ilford Nuclear Emulsion Type K5 (Agar Scientific, AGP9281) in a light-proof slide storage box. After five days, the sections were developed by immersing them successively in the following solutions: 1.) Ilford Phenisol Developer (1:5 dilution in H2O, Agar Scientific, AGP9106), 2.) Ilfostop solution (1:20 dilution in H2O, Agar Scientific, AGP9104), 3.) Ilford Hypam Fixer (1:5 dilution in H2O, Agar Scientific, AGP9183) and finally rinsed with H2O.
(§3) When indicated, immunostaining was also performed on the same section. For image acquisition, sections were mounted using ProLong Gold Antifade reagent (Invitrogen P36930) and imaged on a Panoramic150 Slide Scanner (3DHistech) with a 20×objective capturing separately brightfield and fluorescent images.

[6] = target: T4, alpha-synuclein aggregates (Lewy bodies and Lewy neurites) (Homo sapiens, UniProt P37840); assay: High resolution micro-autoradiography, target engagement in alpha-synucleinopathy tissues; type: binding; conditions: frozen human brain sections, PD, MSA, DLB, LBV, PDD; 10 nM or 20 nM
T4 construct: performed on frozen human brain sections from different alpha-synucleinopathy cases; from tissue; host or cells: frozen human brain sections (PD, PDD, MSA, DLB, LBV)
Procedure: as §2
as §3, with “images. […]” for “images.”

T1 sequence (P05067 672-713 limits assumed): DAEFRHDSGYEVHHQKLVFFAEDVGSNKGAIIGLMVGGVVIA

Structure (SMILES): O=C1N(c2cccnc2)Cc2cc(-c3ccc(N4CC[C@H](F)C4)nc3)nn21 [Example 1, (S)-2-(6-(3-fluoropyrrolidin-1-yl)pyridin-3-yl)-5-(pyridin-3-yl)-4H-imidazo[1,5-b]pyrazol-6(5H)-one hydrochloride]
- Ki ([1]; displacement of [3H]-Abeta-Ref (10 nM) on AD brain-derived homogenates): 0.36 µM
- Selectivity for alpha-synuclein over Abeta pathological aggregates ([1]; human AD brain homogenates versus PD brain binding affinity): good selectivity
- inhibition at 0.1 µM [2]: 56%
- inhibition at 1 µM [2]: 91%
- Ki ([2]; * = mean of two independent experiments, two donors): 0.069 µM

- inhibition at 0.1 µM [2]: 45%
- inhibition at 1 µM [2]: 89%
Structure (SMILES): Cn1cc(N2Cc3cc(-c4ccc(OCCF)nc4)nn3C2=O)cn1 [Example 22, 2-(6-(2-fluoroethoxy)pyridin-3-yl)-5-(1-methyl-1H-pyrazol-4-yl)-4,5-dihydro-6H-imidazo[1,5-b]pyrazol-6-one hydrogen chloride salt]

- inhibition at 0.1 µM [2]: 31%
- inhibition at 1 µM [2]: 82%
Structure (SMILES): O=C1N(c2cncs2)Cc2cc(-c3ccc(OCCF)nc3)nn21 [Example 23, 2-(6-(2-fluoroethoxy)pyridin-3-yl)-5-(thiazol-5-yl)-4,5-dihydro-6H-imidazo [1,5-b] pyrazol-6-one hydrogen chloride salt]

- Autoradiographic signal in non-demented control cases ([3]; non-demented control (NDC) brain sections): very weak
- Target engagement in alpha-synucleinopathy tissues by autoradiography ([3]; one PDD, one LBV and one MSA case): displayed target engagement
- Autoradiography signal in a genetic PD case ([4]; 2.5 nM to 80 nM, SNCA (G51D) brain sections): dose-dependent autoradiography signal
- Kd ([4]; human brain tissue sections, familial PD case (SNCA G51D missense mutation), autoradiography): 0.044 µM
- Kd [5]: 0.018 µM
- Target engagement on Lewy bodies and Lewy neurites (silver grains co-localized with a-syn-pS129) [6]: strong target engagement
Structure (SMILES): [3H]c1cncc(N2Cc3cc(-c4cnc(N5CC[C@H](F)C5)c([3H])c4)nn3C2=O)c1 [[^3H]-Example-1]
- Selectivity for alpha-synuclein over Tau pathological aggregates (Tau aggregates; AD brain tissue): good selectivity for alpha-synuclein over Tau
- Target engagement on Tau aggregates in AD brain tissue (Tau aggregates; AD tissue, compared to reference Tau ligand [3H]-Tau-Ref): did not display specific target engagement; also recorded: No accumulation of silver grains
